The results in this text go back to patent US12060351B2, “Thiadiazole IRAK4 inhibitors” (Gilead Sciences, Inc., priority 2018, dated 2024).

One experiment has as its target T1, IRAK4 enzyme (Homo sapiens, UniProt Q9NWZ3).
T1 construct: purchased Carna Biosciences, Chuo-ku, Kobe, Japan
T1 sequence (Q9NWZ3 1-460): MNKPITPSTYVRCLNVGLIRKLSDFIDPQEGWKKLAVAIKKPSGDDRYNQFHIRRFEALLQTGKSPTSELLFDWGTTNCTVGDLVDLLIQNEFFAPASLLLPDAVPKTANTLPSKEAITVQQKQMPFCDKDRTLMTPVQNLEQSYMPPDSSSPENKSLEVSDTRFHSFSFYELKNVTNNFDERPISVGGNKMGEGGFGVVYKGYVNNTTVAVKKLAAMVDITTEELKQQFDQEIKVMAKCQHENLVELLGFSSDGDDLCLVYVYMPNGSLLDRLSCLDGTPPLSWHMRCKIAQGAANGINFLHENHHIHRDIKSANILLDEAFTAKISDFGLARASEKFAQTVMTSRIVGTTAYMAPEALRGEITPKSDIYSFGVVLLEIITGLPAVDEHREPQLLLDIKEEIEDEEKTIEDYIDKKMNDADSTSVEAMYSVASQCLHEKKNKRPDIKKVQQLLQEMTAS
Kind of experiment: IRAK4 Biochemical Assay (TR-FRET, STK1 KinEASE). Particulars: 500 μM ATP, Table 2 second part (compounds 33-343), read-out: IC50 IRAK4-HTBS. The procedure, abridged:
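Human IRAK4 (0.75 nM) preincubated 15 min with compound and 2 μM STK1 peptide, then reacted 120 min at room temperature with 500 μM ATP in HEPES pH 7.0 buffer with MgCl2 and DTT. EDTA stop with Cryptate anti-phosphopeptide antibody and tracer, 60 min; TR-FRET read as 665/615 nm ratio.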
(Time-resolved FRET reads energy transfer from a long-lived donor to a nearby acceptor.)

The next experiment relates to TNFα. As to the kind of experiment: IRAK4 Monocyte TNFα Cell Based Assay (LPS-stimulated, TR-FRET TNFα detection). On the set-up: species or system human. Particulars: Homo sapiens, Monocyte, read-out: EC50 MONO TNF HTRF. The procedure, abridged: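 Monocytes (5,000 cells/well) treated with compound (0.1% DMSO) for 1 hour at 37° C, then stimulated with 50 pg/ml LPS for 4 hours. TNFα in medium quantified by TR-FRET two-antibody detection after overnight room-temperature incubation. Percent of control calculated against unstimulated (0%) and LPS-stimulated (100%) cells.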

Setting [1] is: human monocytes, LPS-stimulated, Table 2 second part (compounds 33-343).

In general, IC50 refers to the midpoint of a concentration-inhibition curve. The term EC50 denotes the concentration needed to bring the measured effect to its halfway point.

Like-named read-outs stand apart in the source and are kept apart here.

As for `CC(=O)N[C@H]1[C@@H]2CC[C@H]1CN(c1nnc(-c3cnc(-c4ccc5cc(C#N)cnn45)cc3NC(C)C)s1)C2` [Example 39, N-((1R,5S,8r)-3-(5-(6-(3-cyanopyrrolo[1,2-b]pyridazin-7-yl)-4-(isopropylamino)pyridin-3-yl)-1,3,4-thiadiazol-2-yl)-3-azabicyclo[3.2.1]octan-8-yl)acetamide], the concentration for half-maximal inhibition (IC50) on IRAK4 enzyme came to 0.89 nM. For the same compound, the EC50 in the experiment on TNFα (setting [1]) turned out to be 10.4 nM.
The like results for `CC(=O)N[C@H]1C[C@H](c2nnc(-c3cnc(-c4ccc5cc(C#N)cnn45)cc3NC(C)C)s2)C1` [Compound 278, N-((1r,3r)-3-(5-(6-(3-cyanopyrrolo[1,2-b]pyridazin-7-yl)-4-(isopropylamino)pyridin-3-yl)-1,3,4-thiadiazol-2-yl)cyclobutyl)acetamide] were, in that order, 0.07 nM and at least 10000 nM.
Turning to `CC(=O)N[C@@H]1[C@@H]2C[C@H]1CN(c1nnc(-c3cnc(-c4ccc5cc(C#N)cnn45)cc3NC3(C)COC3)s1)C2` [Example 175, N-((1R,5S,6s)-3-(5-(6-(3-cyanopyrrolo[1,2-b]pyridazin-7-yl)-4-((3-methyloxetan-3-yl)amino)pyridin-3-yl)-1,3,4-thiadiazol-2-yl)-3-azabicyclo[3.1.1]heptan-6-yl)acetamide], the half-maximal inhibitory concentration (IC50) at IRAK4 enzyme was found to be 0.57 nM. For the same compound, the EC50 with TNFα was determined as 9 nM.
The corresponding values for `CC(=O)N[C@H]1C[C@H]2CC[C@@H](C1)N2c1nnc(-c2cnc(-c3ccc4cc(C#N)cnn34)cc2NC(C)C)s1` [Example 55, N-((1R,3r,5S)-8-(5-(6-(3-cyanopyrrolo[1,2-b]pyridazin-7-yl)-4-(isopropylamino)pyridin-3-yl)-1,3,4-thiadiazol-2-yl)-8-azabicyclo[3.2.1]octan-3-yl)acetamide] are 0.54 nM and 115 nM.
As for `COC(=O)NC[C@H]1C[C@H](Nc2cc(-c3ccc4cc(C#N)cnn34)ncc2-c2nnc([C@H]3CC[C@H](NC(=O)C4CC4)CC3)s2)C1` [Example 134, methyl (((1R,3r)-3-((2-(3-cyanopyrrolo[1,2-b]pyridazin-7-yl)-5-(5-((1r,4R)-4-(cyclopropanecarboxamido)cyclohexyl)-1,3,4-thiadiazol-2-yl)pyridin-4-yl)amino)cyclobutyl)methyl)carbamate], the 50% inhibitory concentration (IC50) on IRAK4 enzyme worked out at 0.94 nM. Besides, the EC50 with TNFα (setting [1]) worked out at 6.9 nM.
As for `CC(=O)N[C@@H]1[C@@H]2C[C@H]1CN(c1nnc(-c3cnc(-c4ccc5cc(C#N)cnn45)cc3NC3COC3)s1)C2` [Example 179, N-((1R,5S,6s)-3-(5-(6-(3-cyanopyrrolo[1,2-b]pyridazin-7-yl)-4-(oxetan-3-ylamino)pyridin-3-yl)-1,3,4-thiadiazol-2-yl)-3-azabicyclo[3.1.1]heptan-6-yl)acetamide], the IC50 at IRAK4 enzyme was 0.37 nM. For the same compound, in the experiment on TNFα, the EC50 turned out to be 6.4 nM.
On to `CC(C)Nc1cc(-c2ccc3cc(C#N)cnn23)ncc1-c1nnc([C@H]2CC[C@H](NC(=O)C(C)(C)O)CC2)s1` [Example 315, N-((1r,4r)-4-(5-(6-(3-cyanopyrrolo[1,2-b]pyridazin-7-yl)-4-(isopropylamino)pyridin-3-yl)-1,3,4-thiadiazol-2-yl)cyclohexyl)-2-hydroxy-2-methylpropanamide], for which the IC50 at IRAK4 enzyme amounted to 0.77 nM. In addition, in the experiment on TNFα (setting [1]), the EC50 was 10.9 nM.
`CC(=O)N[C@H]1[C@@H]2C[C@H]1CN(c1nnc(-c3cnc(-c4ccc5cc(C#N)cnn45)cc3NC(C)C)s1)C2` [Example 45, N-((1R,5S,6r)-3-(5-(6-(3-cyanopyrrolo[1,2-b]pyridazin-7-yl)-4-(isopropylamino)pyridin-3-yl)-1,3,4-thiadiazol-2-yl)-3-azabicyclo[3.1.1]heptan-6-yl)acetamide]: the IC50 at IRAK4 enzyme was 1.13 nM. In the experiment with TNFα, the EC50 was 11.8 nM.
`CC(C)Nc1cc(-c2ccc3cc(C#N)cnn23)ncc1-c1nnc(NCC(C)(C)O)s1` [Example 37, 7-(5-(5-((2-hydroxy-2-methylpropyl)amino)-1,3,4-thiadiazol-2-yl)-4-(isopropylamino)pyridin-2-yl)pyrrolo[1,2-b]pyridazine-3-carbonitrile]: on IRAK4 enzyme, the IC50 is at least 1000 nM. For the same compound, the EC50 in the experiment with TNFα (setting [1]) is at least 10000 nM.
The corresponding values for `CC(C)Nc1cc(-c2ccc3cc(C#N)cnn23)ncc1-c1nnc(N2C[C@H]3CC[C@@H](C2)[C@@H]3NC(=O)C2CC2)s1` [Example 150, N-((1R,5S,8s)-3-(5-(6-(3-cyanopyrrolo[1,2-b]pyridazin-7-yl)-4-(isopropylamino)pyridin-3-yl)-1,3,4-thiadiazol-2-yl)-3-azabicyclo[3.2.1]octan-8-yl)cyclopropanecarboxamide] are 0.46 nM and 5.2 nM.
`CC(=O)N[C@@H]1[C@@H]2C[C@H]1CN(c1nnc(-c3cnc(-c4ccc5cc(C#N)cnn45)cc3NC(C)C)s1)C2` [Example 173, N-((1R,5S,6s)-3-(5-(6-(3-cyanopyrrolo[1,2-b]pyridazin-7-yl)-4-(isopropylamino)pyridin-3-yl)-1,3,4-thiadiazol-2-yl)-3-azabicyclo[3.1.1]heptan-6-yl)acetamide]: at IRAK4 enzyme, the IC50 was 1.52 nM. Moreover, in the experiment with TNFα, the EC50 amounted to 11.6 nM.
Consider `CC(=O)N[C@@H]1[C@@H]2CC[C@H]1CN(c1nnc(-c3cnc(-c4ccc5cc(C#N)cnn45)cc3NC3(C)COC3)s1)C2` [Example 144, N-((1R,5S,8s)-3-(5-(6-(3-cyanopyrrolo[1,2-b]pyridazin-7-yl)-4-((3-methyloxetan-3-yl)amino)pyridin-3-yl)-1,3,4-thiadiazol-2-yl)-3-azabicyclo[3.2.1]octan-8-yl)acetamide], for which, on IRAK4 enzyme, the IC50 was determined as 0.63 nM. Moreover, the 50% effective concentration (EC50) in the experiment on TNFα (setting [1]) came out at 2.3 nM.
For `CC(C)Nc1cc(-c2ccc3cc(C#N)cnn23)ncc1-c1nnc([C@H]2CC[C@@H](NC(=O)C(C)(C)O)CC2)s1` [Compound 312, N-((1s,4s)-4-(5-(6-(3-cyanopyrrolo[1,2-b]pyridazin-7-yl)-4-(isopropylamino)pyridin-3-yl)-1,3,4-thiadiazol-2-yl)cyclohexyl)-2-hydroxy-2-methylpropanamide], the IC50 on IRAK4 enzyme is 0.91 nM. The EC50 with TNFα (setting [1]) stood at 17.5 nM.
The corresponding values for `CC(C)Nc1cc(-c2ccc3cc(C#N)cnn23)ncc1-c1nnc(N2C[C@H]3CC[C@@H](C2)[C@@H]3NC(=O)C(C)(C)O)s1` [Example 85, N-((1R,5S,8s)-3-(5-(6-(3-cyanopyrrolo[1,2-b]pyridazin-7-yl)-4-(isopropylamino)pyridin-3-yl)-1,3,4-thiadiazol-2-yl)-3-azabicyclo[3.2.1]octan-8-yl)-2-hydroxy-2-methylpropanamide] are 1.04 nM and 3.3 nM.
As to `CNc1cc(-c2ccc3cc(C#N)cnn23)ncc1-c1nnc(N2C[C@H]3C[C@@H](C2)[C@@H]3NC(C)=O)s1` [Example 176, N-((1R,5S,6s)-3-(5-(6-(3-cyanopyrrolo[1,2-b]pyridazin-7-yl)-4-(methylamino)pyridin-3-yl)-1,3,4-thiadiazol-2-yl)-3-azabicyclo[3.1.1]heptan-6-yl)acetamide], the IC50 on IRAK4 enzyme came out at 0.76 nM. Moreover, in the experiment on TNFα, the EC50 was 23.5 nM.
On to `CC(=O)N[C@@H]1[C@@H]2CC[C@H]1CN(c1nnc(-c3cnc(-c4ccc5cc(C#N)cnn45)cc3NC(C)C)s1)C2` [Example 38, N-((1R,5S,8s)-3-(5-(6-(3-cyanopyrrolo[1,2-b]pyridazin-7-yl)-4-(isopropylamino)pyridin-3-yl)-1,3,4-thiadiazol-2-yl)-3-azabicyclo[3.2.1]octan-8-yl)acetamide], for which, at IRAK4 enzyme, the IC50 came to 0.8 nM. Besides, the EC50 in the experiment on TNFα (setting [1]) is 3.5 nM.
